The record followed here is patent US12060351B2, “Thiadiazole IRAK4 inhibitors” (Gilead Sciences, Inc., priority 2018, dated 2024).

A word on the pIC50: it is the negative decadic logarithm of the IC50, by convention in mol/L. One may read the pEC50 as the EC50 on a negative log10 scale, so that one unit is a factor of ten.

One test deals with T1, IRAK4 enzyme (Homo sapiens, UniProt Q9NWZ3).
T1 construct: purchased Carna Biosciences, Chuo-ku, Kobe, Japan
T1 sequence (Q9NWZ3 1-460): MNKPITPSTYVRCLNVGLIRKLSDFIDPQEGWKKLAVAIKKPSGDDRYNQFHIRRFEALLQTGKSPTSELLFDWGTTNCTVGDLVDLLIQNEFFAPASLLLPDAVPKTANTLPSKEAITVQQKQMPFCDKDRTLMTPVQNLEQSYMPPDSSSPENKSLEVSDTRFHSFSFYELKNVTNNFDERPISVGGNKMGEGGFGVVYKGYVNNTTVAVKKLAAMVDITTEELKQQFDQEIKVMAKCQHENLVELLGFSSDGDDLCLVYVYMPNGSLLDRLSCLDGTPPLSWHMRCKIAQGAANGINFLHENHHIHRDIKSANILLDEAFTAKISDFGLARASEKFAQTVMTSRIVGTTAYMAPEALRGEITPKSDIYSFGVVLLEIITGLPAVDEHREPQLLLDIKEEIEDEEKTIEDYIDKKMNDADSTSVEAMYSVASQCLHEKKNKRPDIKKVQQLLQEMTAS
As to the kind of experiment: IRAK4 Biochemical Assay (TR-FRET, STK1 KinEASE). As to conditions: 500 μM ATP, Table 2 second part (compounds 33-343), read-out: IC50 IRAK4-HTBS. The procedure:
IRAK4 enzyme (Carna Biosciences, Chuo-ku, Kobe, Japan) activity was measured by detecting phosphorylated peptide substrate formation using an antibody against the phosphorylated peptide substrate. This is a time-resolved fluorescence resonance energy transfer (TR-FRET) immunoassay, based on the STK1 KinEASE Assay (Cisbio, Bedford, Massachusetts). The assay was designed as a simple two-step, endpoint assay (a 5 μl enzyme reaction followed by 5 μl stop and detect Solution) performed in ProxiPlate-384 Plus plates (Perkin Elmer, Waltham, Massachusetts). […] Compounds diluted in DMSO were spotted into 384 well plates using a Labcyte® Echo 550 Liquid Handling System prior to addition of IRAK4 enzyme and peptide substrate. Reaction solutions were delivered using a Multi-Flo (Bio-Tek Instruments). The enzyme and peptide solution was incubated with compound for 15 minutes at room temp before the reaction was initiated by the addition of ATP. The standard 5 μl reaction mixture contained 500 μM ATP, 2 μM peptide (STK1 Peptide), 0.75 nM of IRAK4 in reaction buffer (50 mM HEPES, pH 7.0, 0.02% NaN3, 0.01% BSA, 0.1 mM Orthovanadate, 5 mM MgCl2, 0.025% NP-40, 1 mM DTT). After 120 min of incubation at room temperature, 5 μl of Stop and Detect Solution (1:100 Cryptate labeled anti-phosphorylated peptide antibody solution and 125 nM Tracer in a 50 mM HEPES pH 7.0 detection buffer containing sufficient EDTA) was added. The plate was then further incubated for 60 minutes at room temperature and read on Envision 2103 Multilabeled reader (PerkinElmer) with excitation/emission/FRET emission at 340 nm/615 nm/665 nm, respectively. Fluorescence intensities at 615 nm and 665 nm emission wavelengths were expressed as a ratio (665 nm/615 nm).
A general note: Time-resolved FRET reads energy transfer from a long-lived donor to a nearby acceptor.

In a further test the test system is TNFα. As to the kind of experiment: IRAK4 Monocyte TNFα Cell Based Assay (LPS-stimulated, TR-FRET TNFα detection). Details: species or system human. Conditions: Homo sapiens, Monocyte, read-out: EC50 MONO TNF HTRF. Here is the method: IRAK4 Monocyte TNFα Cell Based Assay Procedure:
The cell suspension was then plated at a density of 5,000 cells/well onto black 384 well Greiner clear bottom plates. Plates were pre-spotted with test compounds and serially diluted in DMSO where 40 nL/well were delivered using the Echo 550 acoustic liquid dispenser (Labcyte®) for a final DMSO concentration of 0.1%. Plated cells were treated with compound for 1 hour at 37° C. Cells were then stimulated with 50 pg/ml of LPS (Sigma) excluding outside columns of plate used for unstimulated cell control wells. Cells were incubated for an additional 4 hours at 37° C. Cells were then spun out of the media and 5 μl of sample were taken and analyzed for total TNFα content using the TR-FRET Human TNFα detection system (CisBio). This system utilizes two labeled antibodies (cryptate and XL665) that bind to two different epitopes of the TNFα molecule and produce FRET signal proportional to the concentration of TNFα in the sample. Detection antibodies are mixed 50:50 and 5 μL were dispensed into each well. Plates were covered with clear seals and incubated at room temp overnight. […] Percent of control was calculated as follows: % Control=100×(RatioSample−Ratio0% Stimulation)/(Ratio100% Stimulation−Ratio0% Stimulation) where unstimulated cells (0% stimulation) were the negative control and stimulated cells (100% stimulation) were used as the positive control.

[1] abbreviates: human monocytes, LPS-stimulated, Table 2 second part (compounds 33-343).

pEC50, pIC50: −log10 of the molar value. Read-outs that look alike come from different tables or passages of the source.

Turning to `CC(=O)NC[C@H]1C[C@@H](c2nnc(-c3cnc(-c4ccc5cc(C#N)cnn45)cc3NC(C)C)s2)C1` [Compound 289, N-(((1s,3s)-3-(5-(6-(3-cyanopyrrolo[1,2-b]pyridazin-7-yl)-4-(isopropylamino)pyridin-3-yl)-1,3,4-thiadiazol-2-yl)cyclobutyl)methyl)acetamide], the pIC50 on IRAK4 enzyme was 9.62. Further, the pEC50 in the test with TNFα (setting [1]) was 7.67.
The matching figures for `CC(=O)NC[C@H]1C[C@H](c2nnc(-c3cnc(-c4ccc5cc(C#N)cnn45)cc3NC(C)C)s2)C1` [Compound 290, N-(((1r,3r)-3-(5-(6-(3-cyanopyrrolo[1,2-b]pyridazin-7-yl)-4-(isopropylamino)pyridin-3-yl)-1,3,4-thiadiazol-2-yl)cyclobutyl)methyl)acetamide]: 9.48 and 7.79.
On to `CNc1cc(-c2ccc3cc(C#N)cnn23)ncc1-c1nnc(N2C[C@H]3CC[C@@H](C2)[C@@H]3NC(C)=O)s1` [Compound 292, N-((1R,5S,8s)-3-(5-(6-(3-cyanopyrrolo[1,2-b]pyridazin-7-yl)-4-(methylamino)pyridin-3-yl)-1,3,4-thiadiazol-2-yl)-3-azabicyclo[3.2.1]octan-8-yl)acetamide], for which the pIC50 on IRAK4 enzyme is 9.70. Moreover, the negative-log EC50 (pEC50) in the test on TNFα (setting [1]) was 8.17.
In the case of `CC(=O)N(C)[C@@H]1[C@@H]2CC[C@H]1CN(c1nnc(-c3cnc(-c4ccc5cc(C#N)cnn45)cc3NC(C)C)s1)C2` [Compound 300, N-((1R,5S,8s)-3-(5-(6-(3-cyanopyrrolo[1,2-b]pyridazin-7-yl)-4-(isopropylamino)pyridin-3-yl)-1,3,4-thiadiazol-2-yl)-3-azabicyclo[3.2.1]octan-8-yl)-N-methylacetamide], the negative-log IC50 (pIC50) on IRAK4 enzyme is 9.01. Also, the pEC50 with TNFα (setting [1]) is 8.28.
Take `CC(C)Nc1cc(-c2ccc3cc(C#N)cnn23)ncc1-c1nnc(N2C[C@H]3CC[C@@H](C2)[C@@H]3N2CCOC2=O)s1` [Compound 301, 7-(4-(isopropylamino)-5-(5-((1R,5S,8s)-8-(2-oxooxazolidin-3-yl)-3-azabicyclo[3.2.1]octan-3-yl)-1,3,4-thiadiazol-2-yl)pyridin-2-yl)pyrrolo[1,2-b]pyridazine-3-carbonitrile]: at IRAK4 enzyme, the pIC50 was 8.98. The pEC50 in the test with TNFα (setting [1]) is 8.31.
`CC(C)Nc1cc(-c2ccc3cc(C#N)cnn23)ncc1-c1nnc(N2C[C@H]3CC[C@@H](C2)[C@@H]3Nc2ncccn2)s1` [Compound 308, 7-(4-(isopropylamino)-5-(5-((1R,5S,8s)-8-(pyrimidin-2-ylamino)-3-azabicyclo[3.2.1]octan-3-yl)-1,3,4-thiadiazol-2-yl)pyridin-2-yl)pyrrolo[1,2-b]pyridazine-3-carbonitrile]: the negative-log IC50 (pIC50) on IRAK4 enzyme is 8.73. In addition, the pEC50 in the test on TNFα (setting [1]) was 7.74.
In the case of `CC(C)Nc1cc(-c2ccc3cc(C#N)cnn23)ncc1-c1nnc(N2C[C@H]3CC[C@@H](C2)[C@@H]3Nc2ncccc2F)s1` [Compound 309, 7-(5-(5-((1R,5S,8s)-8-((3-fluoropyridin-2-yl)amino)-3-azabicyclo[3.2.1]octan-3-yl)-1,3,4-thiadiazol-2-yl)-4-(isopropylamino)pyridin-2-yl)pyrrolo[1,2-b]pyridazine-3-carbonitrile], at IRAK4 enzyme, the pIC50 is 7.53. Further, in the test on TNFα (setting [1]), the negative logarithm of the EC50 (pEC50) is 6.16.
Regarding `CC(C)(O)C(=O)N[C@H]1CC[C@@H](c2nnc(-c3cnc(-c4ccc5cc(C#N)cnn45)cc3NC3COC3)s2)CC1` [Compound 311, N-((1s,4s)-4-(5-(6-(3-cyanopyrrolo[1,2-b]pyridazin-7-yl)-4-(oxetan-3-ylamino)pyridin-3-yl)-1,3,4-thiadiazol-2-yl)cyclohexyl)-2-hydroxy-2-methylpropanamide], the pIC50 on IRAK4 enzyme was 9.10. For the same molecule, the pEC50 in the test with TNFα (setting [1]) is 7.65.
The matching figures for `CC(C)Nc1cc(-c2ccc3cc(C#N)cnn23)ncc1-c1nnc([C@H]2CC[C@@H](NC(=O)C(C)(C)O)CC2)s1` [Compound 312, N-((1s,4s)-4-(5-(6-(3-cyanopyrrolo[1,2-b]pyridazin-7-yl)-4-(isopropylamino)pyridin-3-yl)-1,3,4-thiadiazol-2-yl)cyclohexyl)-2-hydroxy-2-methylpropanamide]: 9.04 and 7.76.
The matching figures for `COC(=O)N[C@H]1CC[C@H](Nc2cc(-c3ccc4cc(C#N)cnn34)ncc2-c2nnc([C@H]3CC[C@H](NC(C)=O)CC3)s2)CC1` [Example 34, methyl ((1R,4r)-4-((5-(5-((1r,4R)-4-acetamidocyclohexyl)-1,3,4-thiadiazol-2-yl)-2-(3-cyanopyrrolo[1,2-b]pyridazin-7-yl)pyridin-4-yl)amino)cyclohexyl)carbamate]: 9.26 and 8.31.
The matching figures for `CC(C)Nc1cc(-c2ccc3cc(C#N)cnn23)ncc1-c1nnc(NCC(C)(C)O)s1` [Example 37, 7-(5-(5-((2-hydroxy-2-methylpropyl)amino)-1,3,4-thiadiazol-2-yl)-4-(isopropylamino)pyridin-2-yl)pyrrolo[1,2-b]pyridazine-3-carbonitrile]: no more than 6.00 and no more than 5.00.
Take `CC(=O)N[C@@H]1[C@@H]2CC[C@H]1CN(c1nnc(-c3cnc(-c4ccc5cc(C#N)cnn45)cc3NC(C)C)s1)C2` [Example 38, N-((1R,5S,8s)-3-(5-(6-(3-cyanopyrrolo[1,2-b]pyridazin-7-yl)-4-(isopropylamino)pyridin-3-yl)-1,3,4-thiadiazol-2-yl)-3-azabicyclo[3.2.1]octan-8-yl)acetamide]: the negative logarithm of the IC50 (pIC50) at IRAK4 enzyme is 9.10. Besides, the pEC50 with TNFα (setting [1]) was 8.46.
Turning to `CC(=O)N[C@H]1[C@@H]2CC[C@H]1CN(c1nnc(-c3cnc(-c4ccc5cc(C#N)cnn45)cc3NC(C)C)s1)C2` [Example 39, N-((1R,5S,8r)-3-(5-(6-(3-cyanopyrrolo[1,2-b]pyridazin-7-yl)-4-(isopropylamino)pyridin-3-yl)-1,3,4-thiadiazol-2-yl)-3-azabicyclo[3.2.1]octan-8-yl)acetamide], at IRAK4 enzyme, the pIC50 is 9.05. Also, the negative logarithm of the EC50 (pEC50) in the test on TNFα (setting [1]) was 7.98.
With `CC(=O)N[C@H]1[C@@H]2C[C@H]1CN(c1nnc(-c3cnc(-c4ccc5cc(C#N)cnn45)cc3NC(C)C)s1)C2` [Example 45, N-((1R,5S,6r)-3-(5-(6-(3-cyanopyrrolo[1,2-b]pyridazin-7-yl)-4-(isopropylamino)pyridin-3-yl)-1,3,4-thiadiazol-2-yl)-3-azabicyclo[3.1.1]heptan-6-yl)acetamide], the pIC50 at IRAK4 enzyme is 8.95. In addition, in the test on TNFα, the pEC50 is 7.93.
`COC(=O)NC[C@H]1C[C@H](Nc2cc(-c3ccc4cc(C#N)cnn34)ncc2-c2nnc(N3CCN4CCOC[C@H]4C3)s2)C1` [Example 51, methyl (((1R,3r)-3-((2-(3-cyanopyrrolo[1,2-b]pyridazin-7-yl)-5-(5-((R)-hexahydropyrazino[2,1-c][1,4]oxazin-8(1H)-yl)-1,3,4-thiadiazol-2-yl)pyridin-4-yl)amino)cyclobutyl)methyl)carbamate]: on IRAK4 enzyme, the pIC50 was 8.76. For the same molecule, in the test on TNFα (setting [1]), the pEC50 is 8.33.
